{"source": "patent US20140080824A1", "about": "“STRUCTURE-GUIDED IDENTIFICATION OF BINDING INTERACTIONS OF HUMAN LAMININ RECEPTOR PRECURSOR WITH LAMININ AND IDENTIFICATION OF COMPOUNDS THAT AFFECT BINDING” (NEW YORK UNIVERSITY, priority 2010, published 2014)", "molecules": {"B1": {"name": "A. fulgidus S2p: Archaeoglobus fulgidus S2 ribosomal protein, non-laminin binding ortholog of LamR (protein, UniProt O29132 1-197, looked up)", "Small ribosomal subunit …": "MMEKEYEYLVPPDDYLAAGVHIGTQIKTGDMKKFIFKVRQDGLYVLDIRKLDERIRVAAKFLSRYEPSKILLVAARQYAHKPVQMFSKVVGSDYIVGRFIPGTLTNPMLSEYREPEVVFVNDPAIDKQAVSEATAVGIPVVALCDSNNSSADVDLVIPTNNKGRRALAIVYWLLAREIAKIRGQDFTYSIEDFEAEL"}}, "key": {"HT1080 cells [1]": {"system": "HT1080 cells", "test": "HT1080 cell migration towards 10% FBS", "format": "cell-based, human", "procedure": "In order to understand how this in vitro result translated into the cellular context, the ability of cells to migrate toward growth medium was tested in the presence and absence of the LamR inhibitors of the present invention. Since LamR on the cell surface serves the purpose of binding extracellular matrix laminin and facilitates migration and metastasis, it was expected that as inhibitors of cell surface LamR, the compounds of the present invention would reduce the migratory capability of cells. […] The migration of HT1080 cells was reduced to a level equivalent to the no migration control of no serum (No FBS).\nHT1080 cells were tested for their ability to migrate toward normal growth media supplemented with 10% FBS or to 10 μg/mL purified laminin (Invitrogen) using the CytoSelect™ 24-well cell migration assay (8 μm, Colorimetric Format) (Cell Biolabs, Inc.). HT1080 cells were obtained from the American Type Culture Collection (Manassas, Va.). HT1080 cells were maintained in Dulbecco's modified Eagle's medium—[…] with 10% FBS. […] After agitation for 10 min at room temperature in extraction solution, 100 μl of each sample was transferred to an ELISA plate and read at 630 nm. […] Results were plotted using GraphPad Prism software, and statistical significance was calculated using a standard Student's t-test."}, "LamR": {"target": "LamR (Homo sapiens, UniProt P08865)", "test": "Small-molecule inhibition of recombinant LamR binding to laminin coated surface", "settings": "for Effect on LamR binding to laminin (in words): purified recombinant LamR, FIG. 8a; for Reduction of LamR binding to laminin relative to the vehicle control (DMSO alone): purified recombinant LamR pre-incubated with small molecule, dose-dependent (FIG. 8a)", "procedure": "Compounds that interact with this described pocket, MRT (LRI) and MRF (LRI-F), display the properties of LamR inhibitors and are preferred for use in the methods of the present application. […] Binding was not reduced by several negative control compounds (Negative and DBP).\n(§1) Wild type and mutant LamR binding affinity for laminin were tested in vitro. Clear polystyrene ELISA 96-well microplates, pre-coated with murine laminin (NEBiolabs), were blocked for 1 hour at 37° C. with blocking buffer (2% FCS, 1 mg/ml BSA, 0.1% sodium azide in PBS). Wells were incubated with increasing concentrations of purified wild type or mutant LamR for 1 h at 37° C. If a small molecule's effects on laminin binding were to be determined, the small molecule was pre-incubated with purified LamR for 15 minutes at 37° C. prior to addition of the mixture to the pre-coated plate. Each well was washed three times with wash buffer (0.5% Tween in PBS). Penta-His HRP conjugate (1:500) (Qiagen) was incubated for 2 h at RT and wells were washed three times with wash buffer. Substrate solution was added and incubated for approximately 10 minutes before reading the fluorescent absorbance detected at 490 nm on an ELISA plate reader (ELX800, Biotek Instruments, Inc.). Controls for buffer alone and binding of a nonspecific protein, A. fulgidus S2p, were also tested. Experiments were performed in triplicate. A binding curve and Kd were generated for wild type and mutant LamR using Prism software. The Kd was calculated using a one-site binding hyperbola and the equation Y=Bmax×X/(Kd+X). Each group was tested in triplicate and binding affinity was determined by normalizing to background fluorescence."}, "[2]": {"system": "HT1080 human fibrosarcoma cells", "test": "Experimental metastasis of luciferase expressing HT1080 cells in SCID mice", "format": "in vivo", "excerpt": "In addition, LamR has been described to be a critical factor of tumor metastasis. Clinical uses of the LamR inhibitors disclosed herein include their use as anti-metastatic anti-tumor agents. In a manner similar to that observed for the above-described in vitro cellular migration assays, compound LRI-F has such anti-metastatic properties in a murine model of experimental metastasis. […] Tumor cells were imaged via their expression of an exogenous firefly luciferase gene using the IVIS in vivo imaging system (Caliper/Xenogen).\nCells were washed once in PBS and re-suspended to a concentration of 1×10^6 cells/mL in PBS. 0.5 cc of the cell suspension (500,000 cells) was injected intravenously via the tail vein into SCID mice. Tumor implantation was monitored with IVIS Spectrum imaging technology (Caliper LS/Xenogen) following intra-peritoneal injection of luciferin substrate. Briefly, a camera is used to detect bioluminescent signal emitted from luciferase expressing cells. Mice are injected i.p. with 0.3 cc of 15 mg/mL beetle luciferin substrate (Promega) in PBS. Mice are anesthetized with isofluoran (2%)/oxygen mixture prior to imaging 5 minutes post substrate injection. Light is collected over a 1 minute imaging period at high binning to detect lung signal. Living Image Software version 3.0 (Caliper LS) is used to quantify and represent light signal."}, "HT1080 cells [3]": {"system": "HT1080 cells", "test": "Growth inhibition of HT1080 cells", "format": "cell-based, human", "settings": "FIG. 9b", "excerpt": "FIGS. 9a and 9b—Targeting LamR ribosomal and growth functions with inhibitors. (a) Inhibition of cellular translation in several cell lines by LamR inhibitor LRI-F (MRF/Face) by radiolabeled methionine pulse-chase. CHX, cycloheximide (b) Effects of treating HT1080 cells with LamR inhibitors. Dose dependent growth effects occur. *p-value <0.0001, n=3.\nThe analog compound LRI-F, an inhibitor of LamR, affected these functions."}, "[4]": {"system": "3T3, HT1080 and C8161 cell lines", "test": "Cellular translation by 35S-methionine pulse-chase radiolabeling", "format": "cell-based", "settings": "10 μM, FIG. 9a", "procedure": "As expected for compounds with these properties, the LamR inhibitors of the invention attenuated the translation process.\nTo label newly synthesized proteins, cells were pulsed with 20 μCi/mL ^35S-methionine radiolabeled amino acid (PerkinElmer) in standard growth media lacking methionine (MP Biomedicals) for 2 hours at 37° C. Following the pulse, normal growth medium was added for the chase to restore normal conditions for 90 minutes. MPER mammalian protein extraction reagent (Pierce) was used to lyse cells and collect protein. To quantity the amount of newly synthesized protein containing the radioisotope, 20 μg total protein was precipitated with 10% TCA for 20 minutes at 4° C. Precipitant was vacuum filtered and washed on glass microfiber filters (Whatman) using 5% TCA followed by 95% ethanol. Filters were dried under a heat lamp prior to addition of 3 mL scintillation fluid to count radioisotope incorporation by events on a Beckman LS3801 scintillation counter (Beckman). For measuring the effects small molecules had on the translation, cells in culture were pre-treated for 18 hours with 1-10 μM of small molecule prior to pulse/chase. As a control for arresting translation, 50 μg/mL cycloheximide was added 3 hours prior to assessment."}, "laminin": {"system": "laminin", "test": "In vitro binding affinity of wild type and mutant LamR for laminin (ELISA on laminin pre-coated plates)", "parameters": "species or system murine", "settings": "immobilized laminin", "procedure": "as §1, with “Penta-His HRP conjugate (1:500) (Qiagen) was incubated for 2 h at RT and wells were washed three times with wash buffer.” left out, “Controls for buffer alone and binding of a nonspecific protein, A. fulgidus S2p, were also tested. Experiments were performed in triplicate. A binding curve and Kd were generated for wild type and mutant LamR using Prism software.” left out\nIn total, 14 mutants were analyzed individually (Table 1, FIG. 1a). […] The purity of the proteins was monitored by SDS ? […] Purified recombinant LamR220 (greater than 95% purity) was incubated in serial dilution on pre-coated laminin plates, and binding was detected by anti-His HRP. […]"}}, "note": "“Also recorded” adds a separate entry of the source."}
{"molecule": "C[C@@H]1C[C@@H]([C@H](O)CC2CC(=O)NC(=O)C2)C(=O)[C@@H](C)C1", "note": "[CHX, cycloheximide, reference compound]", "values": [{"measurement": "Migration of HT1080 cells to 10% serum after small molecule treatment", "setting": "HT1080 cells [1]; cells pre-treated 2 hours with 5-10 μM small molecule, CHX 50 μg/mL 3 hours, FIG. 8b", "result": "did not result in loss of migratory ability"}]}
{"molecule": "c1ccc2nc3c4ccccc4c4ccccc4c3nc2c1", "note": "[DBP, dibenzophenazine, reference compound]", "values": [{"measurement": "Effect on LamR binding to laminin (in words)", "setting": "LamR", "result": "not reduced"}]}
{"molecule": "S=C(Nc1ccc2nc3c4ccccc4c4ccccc4c3nc2c1)N1CCOCC1", "note": "[MRF, N-dibenzo[a,c]phenazin-11-yl-4-morpholinecarbothioamide]", "values": [{"measurement": "Tumor signal from the lungs", "setting": "[2]; 0.42 mg/20 g injected subcutaneously once 2 hours post-injection of cells, FIG. 10c-d", "result": "decreased tumor signal from the lungs"}, {"measurement": "Ability of HT1080 cells to implant into the lungs after intravenous injection", "setting": "[2]; cells pretreated with 10 μM before tail vein injection, SCID mice, FIG. 10a", "result": "marked decrease"}, {"measurement": "Survival of mice compared to cells pretreated with DMSO vehicle", "setting": "[2]; cells pretreated with 10 μM, FIG. 10b", "result": "prolonged survival"}, {"measurement": "Growth effect in HT1080 cells", "setting": "HT1080 cells [3]", "result": "growth inhibitory effects in HT1080 cells in a dose-dependent manner"}, {"measurement": "Translation of newly synthesized proteins relative to untreated control", "setting": "[4]", "result": "dramatic reduction"}, {"measurement": "Reduction of LamR binding to laminin relative to the vehicle control (DMSO alone)", "setting": "LamR", "result": "approximately 50%"}, {"measurement": "Effect on LamR binding to laminin (in words)", "setting": "LamR", "result": "block recombinant LamR binding to purified laminin coated surface"}]}
{"molecule": "O=C(NCCO)c1ccc2nc3c4ccccc4c4ccccc4c3nc2c1", "note": "[MRT, N-(2-hydroxyethyl)dibenzo[a,c]phenazine-11-carboxamide]", "values": [{"measurement": "Reduction of LamR binding to laminin relative to the vehicle control (DMSO alone)", "setting": "LamR", "result": "approximately 50%"}, {"measurement": "Effect on LamR binding to laminin (in words)", "setting": "LamR", "result": "block recombinant LamR binding to purified laminin coated surface"}]}
{"molecule": "B1", "values": [{"measurement": "Laminin binding activity (in words)", "setting": "laminin", "result": "does not exhibit laminin-binding activity; also recorded: no binding"}, {"measurement": "Inhibition of cell migration towards 10% FBS by recombinant protein", "setting": "HT1080 cells [1]; recombinant protein 1 μM in lower reservoir, FIG. 3b", "result": "not inhibited"}]}
